Experimental data as given in PMC5520056, “Cryo-EM structures of the ATP-bound Vps4^E233Q hexamer and its complex with Vta1 at near-atomic resolution” (Nature Communications, 2017).

Target: T1, Vps4–Vta1 complex (Saccharomyces cerevisiae, UniProt P52917)
T1 construct: both proteins with N-terminal His6 tag (pET28a), E. coli BL21(DE3); Vps4 hexamer with Vta1 at ~2:1 Vta1/Vps4; four Vta1 CTD dimers modelled; with Vacuolar protein sorting-associated protein VTA1
T1 sequence (P52917 1-437 E233Q): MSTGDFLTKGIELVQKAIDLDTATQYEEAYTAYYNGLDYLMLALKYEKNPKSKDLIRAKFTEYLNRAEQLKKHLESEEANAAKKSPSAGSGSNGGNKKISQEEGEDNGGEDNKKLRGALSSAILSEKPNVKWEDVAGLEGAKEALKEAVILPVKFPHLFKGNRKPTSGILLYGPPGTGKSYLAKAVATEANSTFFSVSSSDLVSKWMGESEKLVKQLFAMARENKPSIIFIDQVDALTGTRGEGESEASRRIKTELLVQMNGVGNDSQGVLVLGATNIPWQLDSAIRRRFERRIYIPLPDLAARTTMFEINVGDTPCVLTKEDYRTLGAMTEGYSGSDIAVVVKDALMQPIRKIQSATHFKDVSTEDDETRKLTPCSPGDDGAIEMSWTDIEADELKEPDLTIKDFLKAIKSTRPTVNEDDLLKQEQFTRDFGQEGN
T1 sequence (Q06263 1-330 partner): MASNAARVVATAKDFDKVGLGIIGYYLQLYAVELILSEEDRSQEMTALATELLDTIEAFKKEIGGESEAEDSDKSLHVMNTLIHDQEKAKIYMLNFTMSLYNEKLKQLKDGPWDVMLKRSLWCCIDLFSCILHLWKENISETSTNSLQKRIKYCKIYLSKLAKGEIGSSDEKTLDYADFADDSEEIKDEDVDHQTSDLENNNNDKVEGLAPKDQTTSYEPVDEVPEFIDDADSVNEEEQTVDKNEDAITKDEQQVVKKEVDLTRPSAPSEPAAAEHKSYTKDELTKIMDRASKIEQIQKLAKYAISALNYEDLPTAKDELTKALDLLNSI
Experiment: malachite green phosphate release (ATPase)
Assay type: biochemical
Settings: 1 uM Vps4, 5 mM ATP, 2 mM MgCl2, pH 7.5, 37 °C; Vta1 present

Nc1ncnc2c1ncn2[C@@H]1O[C@H](COP(=O)(O)OP(=O)(O)OP(=O)(O)O)[C@@H](O)[C@H]1O [ATP]
malachite green phosphate release (ATPase): the ATPase activity of the wild-type Vps4 was increased by twofold in the presence of Vta1
